≈ marks a conversion by molar mass, not a printed value. Where “and” joins values, the source holds several entries; their conditions need not be identical. Equal entries are not always repeated. Where two headings read alike, the source gives them in different places.
Experiments:
JB6 = assay: Cell proliferation inhibition, ALCL line JB6; format: cell-based; conditions: Example 4, most sensitive cell lines, read-out: Proliferation IC50 JB6
Text: Cell proliferation inhibition assays were run for compound (II) with the five target NPM-ALK-dependent ALCL cell lines (Karpas 299, SuDHL-1, JB6, SupM2, UConn) and 12 unrelated cell lines (HEK293, CHO-K1, MCF7, HepG2, H292, H520, H1581, H596, H522, CHA-GO-K1, UMC-11, SK-MES1). […] The pronounced target cell-killing effect is also observed (molecular mechanisms to be determined).

TrkC = target: T1, TrkC (Homo sapiens, UniProt Q16288); assay: Invitrogen SelectScreen Z-lyte kinase assay, TrkC; format: biochemical; conditions: 100 μM ATP
T1 construct: purchased Invitrogen (SelectScreen service)
T1 sequence (Q16288 32-839): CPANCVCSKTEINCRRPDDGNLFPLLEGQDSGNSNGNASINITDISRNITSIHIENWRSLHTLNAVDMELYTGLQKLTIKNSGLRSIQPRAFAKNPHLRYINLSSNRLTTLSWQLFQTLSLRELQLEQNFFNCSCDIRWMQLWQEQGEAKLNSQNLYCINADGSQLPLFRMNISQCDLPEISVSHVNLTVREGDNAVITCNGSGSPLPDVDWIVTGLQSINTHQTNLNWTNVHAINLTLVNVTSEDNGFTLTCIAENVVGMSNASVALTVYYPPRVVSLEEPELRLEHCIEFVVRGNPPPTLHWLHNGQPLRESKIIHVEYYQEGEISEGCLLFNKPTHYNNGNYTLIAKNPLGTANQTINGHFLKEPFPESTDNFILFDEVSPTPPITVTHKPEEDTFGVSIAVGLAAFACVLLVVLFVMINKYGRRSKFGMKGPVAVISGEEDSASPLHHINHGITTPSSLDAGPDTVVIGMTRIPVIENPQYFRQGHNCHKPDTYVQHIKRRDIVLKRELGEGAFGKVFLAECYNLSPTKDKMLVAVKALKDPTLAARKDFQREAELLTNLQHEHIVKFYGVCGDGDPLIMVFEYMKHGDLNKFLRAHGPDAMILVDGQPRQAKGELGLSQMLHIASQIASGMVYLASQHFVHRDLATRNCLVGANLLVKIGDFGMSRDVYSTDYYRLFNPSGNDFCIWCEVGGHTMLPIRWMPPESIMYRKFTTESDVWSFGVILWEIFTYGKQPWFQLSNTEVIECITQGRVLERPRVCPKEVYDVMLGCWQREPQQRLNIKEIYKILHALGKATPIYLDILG
Experimental: To evaluate selectivity versus other kinases, inhibition of various kinases by compound (II) was determined. In particular, IC50s for TrkA, Jak2, Axl tyrosine kinases were determined using ADP Hunter (DiscoverX) kinase assay. Single point profiling of compound (II) on 50 human tyrosine kinases and 10 Ser-Thr kinases was done at Upstate/Millipore by radiometric assay. […] The subset of the 520 kinases in the human kinome that were tested was strategically selected to cover most of the therapeutically relevant tyrosine kinases and to represent major branches of serine-threonine kinases.
Compound (II) was a multitargeted tyrosine kinase (TK) inhibitor with a distinct pattern of inhibition focused on ALK, Trk family, Ros and Ret kinases. Invitrogen SelectScreen (Z-lyte assay) produced the following IC5O values for this set of kinases: ALK 9.75 nM, TrkA 1.5 nM, TrkB 1.4 nM, TrkC 1.8 nM, Ret 7.1 nM, Ros 1.8 nM (all measured at 100 μM ATP). […] About 70% of the 50 TKs tested have selectivity in excess of 50-fold for ALK and higher for Ret, Ros and Trk family members.

Src = target: T2, Src (Homo sapiens, UniProt P12931); assay: Invitrogen SelectScreen Z-lyte kinase assay, Src; format: biochemical
T2 construct: purchased Invitrogen
T2 sequence (P12931 whole entry): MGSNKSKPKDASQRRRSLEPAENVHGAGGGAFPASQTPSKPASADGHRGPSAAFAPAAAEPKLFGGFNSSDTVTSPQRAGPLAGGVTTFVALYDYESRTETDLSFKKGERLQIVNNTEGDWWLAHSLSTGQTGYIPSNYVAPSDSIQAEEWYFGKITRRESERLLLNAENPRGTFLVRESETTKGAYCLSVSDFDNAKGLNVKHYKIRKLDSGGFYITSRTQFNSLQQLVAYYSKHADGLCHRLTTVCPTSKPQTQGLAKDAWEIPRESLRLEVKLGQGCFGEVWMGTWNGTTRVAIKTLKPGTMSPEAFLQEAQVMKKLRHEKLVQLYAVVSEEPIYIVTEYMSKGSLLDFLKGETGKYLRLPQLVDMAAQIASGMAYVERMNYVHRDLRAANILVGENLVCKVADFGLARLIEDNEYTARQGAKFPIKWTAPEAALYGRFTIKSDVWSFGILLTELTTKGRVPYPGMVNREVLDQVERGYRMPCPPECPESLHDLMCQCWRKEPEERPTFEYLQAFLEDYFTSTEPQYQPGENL

CYP2D6 = target: T3, CYP2D6 (Homo sapiens, UniProt P10635); assay: CYP2D6 Inhibition (recombinant, MFC substrate); format: in vitro ADME
T3 construct: purchased Cerep (contract assay, ADMET Study 13170)
T3 sequence (P10635 whole entry): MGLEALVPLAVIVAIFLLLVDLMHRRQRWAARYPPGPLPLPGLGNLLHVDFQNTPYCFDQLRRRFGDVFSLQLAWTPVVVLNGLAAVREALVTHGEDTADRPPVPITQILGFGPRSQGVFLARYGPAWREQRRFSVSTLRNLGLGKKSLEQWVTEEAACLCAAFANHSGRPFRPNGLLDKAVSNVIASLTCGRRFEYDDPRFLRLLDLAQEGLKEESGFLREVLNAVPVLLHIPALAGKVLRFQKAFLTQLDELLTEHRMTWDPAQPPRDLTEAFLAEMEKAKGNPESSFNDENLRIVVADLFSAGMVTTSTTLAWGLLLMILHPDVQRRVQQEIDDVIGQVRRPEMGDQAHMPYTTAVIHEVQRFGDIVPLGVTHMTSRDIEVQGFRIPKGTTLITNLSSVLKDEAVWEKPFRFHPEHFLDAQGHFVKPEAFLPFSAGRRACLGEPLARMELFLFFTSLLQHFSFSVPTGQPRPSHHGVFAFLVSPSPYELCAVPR

[1] = Aqueous Solubility (PBS, pH 7.4); format: physicochemical; conditions: for solubility: pH 7.4, PBS
[2] = Pharmacokinetics study in CD-1 mice (IV, PO); format: in vivo; conditions: for MRT inf: read-out: MRT(0-∞); for concentration at 4 h: time point 4, Mean
Experimental: A comprehensive PK study was run in CD-1 strain of mice with IV (1 mg/kg) and PO (5 mg/kg) routes of drug delivery and analytical data collection at 10 time points over 24 hours (Medicilon, Study CRL0703).
Blood samples were collected by removing the eyeballs at pre-dose and 0.083, 0.25, 0.5, 1, 2, 4, 6, 8, and 24 hours post-dose. The plasma samples and the dose formulation were stored at −20° C. until bioanalysis.

ALK = ALK (Homo sapiens, UniProt Q9UM73); assay: Biochemical ALK inhibition (ADP Hunter, radiometric, Z-lyte); design: purchased DiscoveRx (ADP Hunter kit); Upstate/Millipore; Invitrogen
Sequence of ALK (Q9UM73 19-1620): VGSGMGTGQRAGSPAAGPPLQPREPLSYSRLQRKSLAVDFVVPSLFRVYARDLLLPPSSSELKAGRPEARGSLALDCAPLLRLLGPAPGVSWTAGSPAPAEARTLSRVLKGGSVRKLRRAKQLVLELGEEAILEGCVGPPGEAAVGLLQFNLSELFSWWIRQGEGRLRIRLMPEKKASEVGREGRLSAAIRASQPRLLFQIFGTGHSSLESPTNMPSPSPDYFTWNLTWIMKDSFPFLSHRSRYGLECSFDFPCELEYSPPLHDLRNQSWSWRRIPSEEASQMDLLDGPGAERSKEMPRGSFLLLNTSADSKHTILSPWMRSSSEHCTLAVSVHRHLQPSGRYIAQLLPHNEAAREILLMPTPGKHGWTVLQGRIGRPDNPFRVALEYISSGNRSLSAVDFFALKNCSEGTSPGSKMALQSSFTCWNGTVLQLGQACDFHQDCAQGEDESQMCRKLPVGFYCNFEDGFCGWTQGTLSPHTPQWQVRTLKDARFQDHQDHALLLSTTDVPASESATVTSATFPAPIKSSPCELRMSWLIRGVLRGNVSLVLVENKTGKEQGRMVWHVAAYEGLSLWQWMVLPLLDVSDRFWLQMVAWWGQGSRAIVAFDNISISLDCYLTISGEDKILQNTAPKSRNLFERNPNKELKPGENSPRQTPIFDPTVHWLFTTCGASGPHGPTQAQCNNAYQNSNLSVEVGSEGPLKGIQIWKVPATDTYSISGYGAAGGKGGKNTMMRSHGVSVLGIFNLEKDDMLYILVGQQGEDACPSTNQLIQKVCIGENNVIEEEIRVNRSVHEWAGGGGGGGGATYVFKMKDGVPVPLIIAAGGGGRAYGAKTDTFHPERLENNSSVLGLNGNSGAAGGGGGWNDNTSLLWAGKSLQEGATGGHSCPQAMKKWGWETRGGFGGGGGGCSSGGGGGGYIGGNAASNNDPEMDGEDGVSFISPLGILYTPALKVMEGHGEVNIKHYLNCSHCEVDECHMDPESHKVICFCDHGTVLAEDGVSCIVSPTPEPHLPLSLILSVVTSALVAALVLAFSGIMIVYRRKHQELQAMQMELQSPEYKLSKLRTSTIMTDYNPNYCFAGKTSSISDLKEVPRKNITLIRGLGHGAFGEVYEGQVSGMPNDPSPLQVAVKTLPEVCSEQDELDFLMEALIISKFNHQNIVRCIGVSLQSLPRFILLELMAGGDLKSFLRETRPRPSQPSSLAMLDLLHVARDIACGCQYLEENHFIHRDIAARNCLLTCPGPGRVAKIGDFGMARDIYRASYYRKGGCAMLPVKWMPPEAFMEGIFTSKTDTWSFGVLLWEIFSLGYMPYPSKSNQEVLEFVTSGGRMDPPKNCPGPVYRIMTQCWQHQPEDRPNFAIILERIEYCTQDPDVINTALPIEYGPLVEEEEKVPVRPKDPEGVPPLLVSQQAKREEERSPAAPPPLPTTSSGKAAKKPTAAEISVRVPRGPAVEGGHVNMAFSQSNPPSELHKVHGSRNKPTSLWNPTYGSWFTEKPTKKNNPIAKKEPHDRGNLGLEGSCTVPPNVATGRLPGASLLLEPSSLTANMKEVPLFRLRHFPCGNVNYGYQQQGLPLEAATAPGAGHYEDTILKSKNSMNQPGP
Experimental: Compound (II) (also labeled as CRL241 in some of the figures) was tested using several diverse assay technologies utilizing common assay readouts such as ADP generation detection and FRET or radiolabel-based measurement of phosphate incorporation in the substrate.
Biochemical potency of ALK inhibition (IC50) for compound (II) was determined in multiple experiments using a commercial ADP detection assay (ADP Hunter, DiscoveRx), and in radiometric (Upstate/Millipore) or FRET based fluorimetric (Z-lyte, Invitrogen) assays.

[3] = CD-1, mouse, plasma, iv, 1 mg/kg, IV 1 mg/kg, CD-1 mice, Mean
[4] = CD-1, mouse, plasma, iv, 1 mg/kg, IV 1 mg/kg, individual animals A-D
[5] = IV 1 mg/kg, individual animals A-D, 1 mg/kg

Cc1ccc(F)cc1C[C@H](C)Nc1cc[nH]c(=O)c1-c1nc2cc3c(cc2[nH]1)C(=O)N(CCN1CCCC1)C3 [compound (II)]
IC50 (JB6): 5 to 10 nM | IC50 (TrkC): 1.8 nM | IC50 (Src): 32 nM | CYP2D6 inhibition (CYP2D6; 1 μM and 5 μM): No inhibition was detected | activity at 1 µM (CYP2D6; human, recombinant CYP2D6, probe MFC, 1.0E−06 M, Table 5B individual results, read-out: CYP2D6 % Inhibition of Control Values, 1st/2nd/3rd): 101% | activity at 5 µM (CYP2D6; human, recombinant CYP2D6, probe MFC, 5.0E−06 M, Table 5B individual results, read-out: CYP2D6 % Inhibition of Control Values, 1st/2nd/3rd): 84.9% | inhibition at 1 µM (CYP2D6; human, recombinant CYP2D6, probe MFC, 1.0E−06 M, read-out: CYP2D6 % Inhibition of Control Values): 2% | inhibition at 5 µM (CYP2D6; human, recombinant CYP2D6, probe MFC, 5.0E−06 M, read-out: CYP2D6 % Inhibition of Control Values): 16% | Solubility 1st/2nd ([1]; pH 7.4, 2.0E−04 M, individual data, listed as CRL241): 33.81 μm | solubility ([1]; pH 7.4, 2.0E−04 M, Tables 9C, 9D, read-out: Solubility Mean): 33.9 µM (≈ 17.9 µg/mL) | solubility ([1]; pH 7.4, 2.0E−04 M, individual data, read-out: Solubility 1st/2nd): 34 µM (≈ 18 µg/mL) | solubility at 24 h ([1]; pH 7.4, test concentration 2.0E−04 M, 24 hours, RT): 34 µM (≈ 18 µg/mL) | AUC(0-inf) [2, 3]: 0.105 µg·h/mL | Tmax [2, 3]: 4.8 min | AUC(0-t) ([2]; CD-1, mouse, plasma, iv, 1 mg/kg, IV 1 mg/kg, CD-1 mice, Mean, read-out: AUC(0-t)): 0.102 µg·h/mL | Cmax ([2]; CD-1, mouse, plasma, iv, 1 mg/kg, IV 1 mg/kg, CD-1 mice, Mean, read-out: Cmax): 0.186 µg/mL | MRT inf [2, 3]: 1.36 h | AUC(0-inf) [2, 4]: 0.102 µg·h/mL | Tmax [2, 4]: 4.98 min | AUC(0-t) ([2]; CD-1, mouse, plasma, iv, 1 mg/kg, IV 1 mg/kg, individual animals A-D, read-out: AUC(0-t)): 0.1 µg·h/mL | Cmax ([2]; CD-1, mouse, plasma, iv, 1 mg/kg, IV 1 mg/kg, individual animals A-D, read-out: Cmax): 0.248 µg/mL | MRT inf [2, 4]: 1.37 h | concentration at […] ([2]; CD-1, mouse, plasma, iv, 1 mg/kg, IV 1 mg/kg, time point 0.083, Mean): 0.186 µg/mL | concentration at […] ([2]; CD-1, mouse, plasma, iv, 1 mg/kg, IV 1 mg/kg, time point 0.083, individual animals A-D): 0.163 µg/mL | concentration at […] ([2]; CD-1, mouse, plasma, iv, 1 mg/kg, IV 1 mg/kg, time point 0.35, Mean): 0.074 µg/mL | concentration at 0.5 h ([2]; CD-1, mouse, plasma, iv, 1 mg/kg, IV 1 mg/kg, time point 0.5, Mean): 0.0329 µg/mL | concentration at 0.5 h ([2]; CD-1, mouse, plasma, iv, 1 mg/kg, IV 1 mg/kg, time point 0.5, individual animals A-D): 0.0368 µg/mL | concentration at 1 h ([2]; CD-1, mouse, plasma, iv, 1 mg/kg, IV 1 mg/kg, time point 1, Mean): 0.0189 µg/mL | concentration at 1 h ([2]; CD-1, mouse, plasma, iv, 1 mg/kg, IV 1 mg/kg, time point 1, individual animals A-D): 0.0141 µg/mL | concentration at 2 h ([2]; CD-1, mouse, plasma, iv, 1 mg/kg, IV 1 mg/kg, time point 2, Mean): 0.0103 µg/mL | concentration at 2 h ([2]; CD-1, mouse, plasma, iv, 1 mg/kg, IV 1 mg/kg, time point 2, individual animals A-D): 0.0104 µg/mL | concentration at 4 h ([2]; CD-1, mouse, plasma, iv, 1 mg/kg, IV 1 mg/kg): 0.00505 µg/mL | concentration at 6 h ([2]; CD-1, mouse, plasma, iv, 1 mg/kg, IV 1 mg/kg, time point 6, Mean): 0.00218 µg/mL | concentration at 6 h ([2]; CD-1, mouse, plasma, iv, 1 mg/kg, IV 1 mg/kg, time point 6, individual animals A-D): 0.00213 µg/mL | concentration at […] ([2]; CD-1, mouse, plasma, po, 5 mg/kg, PO 5 mg/kg, time point 0.083, Mean): 0.00124 µg/mL | concentration at […] ([2]; CD-1, mouse, plasma, po, 5 mg/kg, PO 5 mg/kg, time point 0.083, individual animals A-D): 0.00207 µg/mL | concentration at […] ([2]; CD-1, mouse, plasma, po, 5 mg/kg, PO 5 mg/kg, time point 0.35, individual animals A-D): 0.00121 µg/mL | concentration at 2 h ([2]; CD-1, mouse, plasma, po, 5 mg/kg, PO 5 mg/kg, time point 2, Mean): 0.00101 µg/mL | concentration at 2 h ([2]; CD-1, mouse, plasma, po, 5 mg/kg, PO 5 mg/kg, time point 2, individual animals A-D): 0.00147 µg/mL | concentration at 4 h ([2]; CD-1, mouse, plasma, po, 5 mg/kg, PO 5 mg/kg): 0.00364 µg/mL | concentration at 6 h ([2]; CD-1, mouse, plasma, po, 5 mg/kg, PO 5 mg/kg, time point 6, individual animals A-D): 0.00134 µg/mL | CL2 ([2]; IV 1 mg/kg, CD-1 mice, Mean): 9.52 L/h/kg | V2 ([2]; IV 1 mg/kg, CD-1 mice, Mean): 18.63 L/kg | AUC(0-t) [2, 5]: 0.096033 µg·h/mL and 0.110999 µg·h/mL and 0.102243 µg·h/mL | AUC(0-∞) [2, 5]: 0.097734 µg·h/mL and 0.116619 µg·h/mL and 0.105516 µg·h/mL | CL2 [2, 5]: 9.811 L/h/kg and 10.232 L/h/kg and 8.575 L/h/kg and 9.477 L/h/kg | Cmax [2, 5]: 0.144182 µg/mL and 0.163492 µg/mL and 0.186531 µg/mL | MRT(0-∞) [2, 5]: 1.295 h and 1.614 h and 1.176 h | T1/2z [2, 5]: 1.16 h and 1.124 h and 1.81 h and 1.395 h | V2 [2, 5]: 16.427 L/kg and 16.598 L/kg and 22.401 L/kg and 19.076 L/kg | Plasma Concentration ([2]; IV 1 mg/kg, time point 0.083, individual animals A-D, 1 mg/kg): 186.53 ng/mL and 248.44 ng/mL and 144.18 ng/mL | Plasma Concentration ([2]; IV 1 mg/kg, time point 0.5, individual animals A-D, 1 mg/kg): 29.12 ng/mL and 31.99 ng/mL and 33.27 ng/mL | Plasma Concentration ([2]; IV 1 mg/kg, time point 1, individual animals A-D, 1 mg/kg): 19.36 ng/mL and 19.24 ng/mL and 22.93 ng/mL | Plasma Concentration ([2]; IV 1 mg/kg, time point 2, individual animals A-D, 1 mg/kg): 8.73 ng/mL and 9.58 ng/mL and 12.30 ng/mL | Plasma Concentration ([2]; IV 1 mg/kg, time point 4, individual animals A-D, 1 mg/kg): 8.09 ng/mL and 4.47 ng/mL and 3.14 ng/mL and 3.60 ng/mL | Plasma Concentration ([2]; IV 1 mg/kg, time point 6, individual animals A-D, 1 mg/kg): 1.81 ng/mL and 3.23 ng/mL and 1.77 ng/mL | Plasma Concentration ([2]; IV 1 mg/kg, time point 8, individual animals A-D): BLQ | Plasma Concentration ([2]; IV 1 mg/kg, time point 24, individual animals A-D): BLQ | Volume of distribution relative to total body water ([2]; IV, mice): 26 fold | Plasma Concentration ([2]; PO 5 mg/kg, time point 0.083, individual animals A-D, 5 mg/kg): 2.19 ng/mL and BLQ (2×) | Plasma Concentration ([2]; PO 5 mg/kg, time point 0.35, individual animals A-D, 5 mg/kg): BLQ | Plasma Concentration ([2]; PO 5 mg/kg, time point 0.5, individual animals A-D): BLQ | Plasma Concentration ([2]; PO 5 mg/kg, time point 1, individual animals A-D): BLQ | Plasma Concentration ([2]; PO 5 mg/kg, time point 2, individual animals A-D, 5 mg/kg): 1.00 ng/mL and BLQ (2×) | Plasma Concentration ([2]; PO 5 mg/kg, time point 4, individual animals A-D, 5 mg/kg): 6.06 ng/mL and 1.90 ng/mL and 1.22 ng/mL and 5.39 ng/mL | Plasma Concentration ([2]; PO 5 mg/kg, time point 6, individual animals A-D, 5 mg/kg): BLQ | Plasma Concentration ([2]; PO 5 mg/kg, time point 8, individual animals A-D): BLQ | Plasma Concentration ([2]; PO 5 mg/kg, time point 24, individual animals A-D): BLQ | half-life ([2]; mouse, plasma, IV 1 mg/kg, CD-1 mice, Mean, read-out: T1/2z (plasma half-life) (converted)): 1.37 h | bioavailability ([2]; mouse, plasma, PO 5 mg/kg vs IV 1 mg/kg, CD-1 mice): < 1% | IC50 (ALK; ADP Hunter, radiometric and Z-lyte assays, 100 or 200 μM ATP): 9 to 11 nM | Selectivity for ALK versus the related IR and IGF1R (ALK; radiometric assay (Upstate/Millipore)): 10-15 fold

Reference: patent US9249147B2, “Tyrosine kinase inhibitors” (CHEMBRIDGE CORPORATION, priority 2008, dated 2016)
